Columns and labels:
Assay type in all cases: in vivo
Stellaria media [1] = test: Test Example 5: herbicidal effect by foliage application, plastic box (symbol P); conditions: 320 g/ha, 3 weeks after application
Summary of the method: (§1)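 Visual herbicidal score, taken three weeks post-application, of seedlings sprayed on the foliage with water-diluted emulsion at a predetermined amount; plants were 14 days old, greenhouse-raised at 25° C. to 30° C.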

Galium spurium = test: Test Example 5: herbicidal effect by foliage application, plastic box (symbol Q); conditions: 320 g/ha, 3 weeks after application
Summary of the method: as §1

[2] = tested on: Echinochloa crus-galli var. crus-galli; test: Test Example 4: herbicidal effect by soil treatment (symbol H); conditions: 320 g/ha
Summary of the method: (§2)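 Seeds were sown in sterilized diluvial soil, covered with about 1.5 cm of soil, and the soil surface was sprayed with a water-diluted emulsion of the compound at a predetermined rate. Plants grew in a greenhouse at 25° C. to 30° C.; effects were scored visually 3 weeks after application.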

Apera spica-venti = test: Test Example 4: herbicidal effect by soil treatment (symbol L); conditions: 320 g/ha
Summary of the method: as §2

Leptochloa chinensis = test: Test Example 3: herbicidal effect by foliage application, Wagner pot (symbol D); conditions: application herbicide amount 320 g/ha
Summary of the method: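 Foliar spray of water-diluted emulsion formulation at a predetermined herbicide amount onto 14-day-old plants in flooded alluvial soil (water depth 0.1–0.5 cm), greenhouse 25–30 °C; rice sown alongside. Scored 3 wk post-application on set criteria.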

Alopecurus myosuroides = test: Test Example 5: herbicidal effect by foliage application, plastic box (symbol J); conditions: 320 g/ha, 3 weeks after application
Summary of the method: as §1

corn = test: Test Example 4: effect on crop by soil treatment (symbol c); conditions: 320 g/ha
Summary of the method: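 Greenhouse culture at 25° C. to 30° C. followed sowing of seed in spots on sterilized diluvial soil with a soil cover close to 1.5 cm thick.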

Stellaria media [3] = test: Test Example 4: herbicidal effect by soil treatment (symbol P); conditions: 320 g/ha
Summary of the method: as §2

Setaria viridis [4] = test: Test Example 5: herbicidal effect by foliage application, plastic box (symbol G); conditions: 320 g/ha, 3 weeks after application
Summary of the method: as §1

Setaria viridis [5] = test: Test Example 4: herbicidal effect by soil treatment (symbol G); conditions: 320 g/ha
Summary of the method: as §2

[6] = tested on: Echinochloa crus-galli var. crus-galli; test: Test Example 5: herbicidal effect by foliage application, plastic box (symbol H); conditions: 320 g/ha, 3 weeks after application
Summary of the method: as §1

Lolium multiflorum Lam. = test: Test Example 4: herbicidal effect by soil treatment (symbol K); conditions: 320 g/ha
Summary of the method: as §2

rapeseed [7] = test: Test Example 4: effect on crop by soil treatment (symbol g); conditions: 320 g/ha
Summary of the method: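 Steps: fill box with sterilized diluvial soil; sow seed spot-like; cover with ~1.5 cm soil; grow in greenhouse (25° C. to 30° C.).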

Scirpus juncoides = test: Test Example 1: herbicidal activity, application before weed generation in submerged conditions (symbol B); conditions: application herbicide amount 320 g/ha
Summary of the method: (§3)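 Ratings (5: ≥90%, near complete withering; 4: 70–<90%; 3: 40–<70%; 2: 20–<40%; 1: 5–<20%; 0: ≤5%) were assigned 3 weeks after the diluted emulsion was applied to the water surface of freshly sown, submerged pots.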

Amaranthus retroflexus = test: Test Example 4: herbicidal effect by soil treatment (symbol N); conditions: 320 g/ha
Summary of the method: as §2

Monochoria vaginalis = test: Test Example 1: herbicidal activity, application before weed generation in submerged conditions (symbol C); conditions: application herbicide amount 320 g/ha
Summary of the method: as §3

rapeseed [8] = test: Test Example 5: effect on crop by foliage application, plastic box (symbol g); conditions: 320 g/ha, 3 weeks after application
Summary of the method: (§4)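 Sterilized diluvial soil, plastic box (21 × 13 × 7 cm); spot sowing, ~1.5 cm soil cover; greenhouse 25–30° C.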

wheat = test: Test Example 5: effect on crop by foliage application, plastic box (symbol e); conditions: 320 g/ha, 3 weeks after application
Summary of the method: as §4

SMILES | P: Stellaria media, herbicidal effect (criteria 0-5) (Stellaria media [1]) | Q: Galium spurium, herbicidal effect (criteria 0-5) (Galium spurium) | H: Echinochloa crus-galli var. crus-galli, herbicidal effect grade [2] | L: Apera spica-venti, herbicidal effect grade (Apera spica-venti) | herbicidal effect on D (Leptochloa chinensis), grade 0-5 (Leptochloa chinensis) | J: Alopecurus myosuroides, herbicidal effect (criteria 0-5) (Alopecurus myosuroides) | c: corn, effect grade on crop (corn) | P: Stellaria media, herbicidal effect grade (Stellaria media [3]) | G: Setaria viridis, herbicidal effect (criteria 0-5) (Setaria viridis [4]) | G: Setaria viridis, herbicidal effect grade (Setaria viridis [5]) | H: Echinochloa crus-galli var. crus-galli, herbicidal effect (criteria 0-5) [6] | K: Lolium multiflorum Lam., herbicidal effect grade (Lolium multiflorum Lam.) | g: rapeseed, effect grade on crop (rapeseed [7]) | Herbicidal effect grade, B: Scirpus juncoides (Scirpus juncoides) | N: Amaranthus retroflexus, herbicidal effect grade (Amaranthus retroflexus) | Herbicidal effect grade, C: Monochoria vaginalis (Monochoria vaginalis) | g: rapeseed, effect on crop (criteria 0-5) (rapeseed [8]) | e: wheat, effect on crop (criteria 0-5) (wheat)
CON=C(C)CC1CC(OC(=O)COc2ccc(Br)cc2)=C(c2c(C)cc(C)cc2C)C1=O (stereo not drawn) [1-081] | 0 (Herbicidal ratio of 5% or lower (almost no effect)) | 0 (Herbicidal ratio of 5% or lower (almost no effect)) | 5 (Herbicidal ratio of 90% or more (almost completely withered)) | 5 (Herbicidal ratio of 90% or more (almost completely withered)) | 5 (Herbicidal ratio of 90% or more (almost completely withered)) | 5 (Herbicidal ratio of 90% or more (almost completely withered)) | 4 (Herbicidal ratio of 70% or higher and lower than 90%) | 0 (Herbicidal ratio of 5% or lower (almost no effect)) | 5 (Herbicidal ratio of 90% or more (almost completely withered)) | 5 (Herbicidal ratio of 90% or more (almost completely withered)) | 5 (Herbicidal ratio of 90% or more (almost completely withered)) | 5 (Herbicidal ratio of 90% or more (almost completely withered)) | 4 (Herbicidal ratio of 70% or higher and lower than 90%) | 5 (Herbicidal ratio of 90% or more (almost completely withered)) | 4 (Herbicidal ratio of 70% or higher and lower than 90%) | 2 (Herbicidal ratio of 20% or higher and lower than 40%) | 5 (Herbicidal ratio of 90% or more (almost completely withered)) | 4 (Herbicidal ratio of 70% or higher and lower than 90%)
CON=C(C)CC1CC(OC(=O)COc2ccc(I)cc2)=C(c2c(C)cc(C)cc2C)C1=O (stereo not drawn) [1-082] | 0 (Herbicidal ratio of 5% or lower (almost no effect)) | 0 (Herbicidal ratio of 5% or lower (almost no effect)) | 5 (Herbicidal ratio of 90% or more (almost completely withered)) | 5 (Herbicidal ratio of 90% or more (almost completely withered)) | 5 (Herbicidal ratio of 90% or more (almost completely withered)) | 5 (Herbicidal ratio of 90% or more (almost completely withered)) | 4 (Herbicidal ratio of 70% or higher and lower than 90%) | 0 (Herbicidal ratio of 5% or lower (almost no effect)) | 5 (Herbicidal ratio of 90% or more (almost completely withered)) | 5 (Herbicidal ratio of 90% or more (almost completely withered)) | 5 (Herbicidal ratio of 90% or more (almost completely withered)) | 5 (Herbicidal ratio of 90% or more (almost completely withered)) | 4 (Herbicidal ratio of 70% or higher and lower than 90%) | 5 (Herbicidal ratio of 90% or more (almost completely withered)) | 5 (Herbicidal ratio of 90% or more (almost completely withered)) | 2 (Herbicidal ratio of 20% or higher and lower than 40%) | 4 (Herbicidal ratio of 70% or higher and lower than 90%) | 5 (Herbicidal ratio of 90% or more (almost completely withered))
CON=C(C)CC1CC(OC(=O)COc2ccc3ccccc3c2)=C(c2c(C)cc(C)cc2C)C1=O (stereo not drawn) [1-083] | 4 (Herbicidal ratio of 70% or higher and lower than 90%) | 0 (Herbicidal ratio of 5% or lower (almost no effect)) | 5 (Herbicidal ratio of 90% or more (almost completely withered)) | 5 (Herbicidal ratio of 90% or more (almost completely withered)) | 5 (Herbicidal ratio of 90% or more (almost completely withered)) | 5 (Herbicidal ratio of 90% or more (almost completely withered)) | 4 (Herbicidal ratio of 70% or higher and lower than 90%) | 0 (Herbicidal ratio of 5% or lower (almost no effect)) | 5 (Herbicidal ratio of 90% or more (almost completely withered)) | 5 (Herbicidal ratio of 90% or more (almost completely withered)) | 5 (Herbicidal ratio of 90% or more (almost completely withered)) | 5 (Herbicidal ratio of 90% or more (almost completely withered)) | 4 (Herbicidal ratio of 70% or higher and lower than 90%) | 4 (Herbicidal ratio of 70% or higher and lower than 90%) | 5 (Herbicidal ratio of 90% or more (almost completely withered)) | 1 (Herbicidal ratio of 5% or higher and lower than 20%) | 4 (Herbicidal ratio of 70% or higher and lower than 90%) | 5 (Herbicidal ratio of 90% or more (almost completely withered))
CON=C(CC1CC(O)=C(c2c(C)cc(C)cc2C)C1=O)C1CCCCC1 (stereo not drawn) [1-085] | 0 (Herbicidal ratio of 5% or lower (almost no effect)) | 0 (Herbicidal ratio of 5% or lower (almost no effect)) | 1 (Herbicidal ratio of 5% or higher and lower than 20%) | 3 (Herbicidal ratio of 40% or higher and lower than 70%) | 4 (Herbicidal ratio of 70% or higher and lower than 90%) | 3 (Herbicidal ratio of 40% or higher and lower than 70%) | 0 (Herbicidal ratio of 5% or lower (almost no effect)) | 0 (Herbicidal ratio of 5% or lower (almost no effect)) | 5 (Herbicidal ratio of 90% or more (almost completely withered)) | 5 (Herbicidal ratio of 90% or more (almost completely withered)) | 5 (Herbicidal ratio of 90% or more (almost completely withered)) | 3 (Herbicidal ratio of 40% or higher and lower than 70%) | 0 (Herbicidal ratio of 5% or lower (almost no effect)) | 0 (Herbicidal ratio of 5% or lower (almost no effect)) | 0 (Herbicidal ratio of 5% or lower (almost no effect)) | 0 (Herbicidal ratio of 5% or lower (almost no effect)) | 1 (Herbicidal ratio of 5% or higher and lower than 20%) | 3 (Herbicidal ratio of 40% or higher and lower than 70%)
